Two compounds from article PMC9530963, “A cathelicidin antimicrobial peptide from Hydrophis cyanocinctus inhibits Zika virus infection by downregulating expression of a viral entry factor” (The Journal of Biological Chemistry, 2022) can be followed below.

This test relates to AXL. Briefly: Effect of AC and PKA on Hc-CATH-induced AXL downregulation in A549 cells. The settings on record: 1 h pre-incubation of A549 cells, then Hc-CATH 5 μM, 24 h, Western blot. It counts as cell-based, Homo sapiens. Here is the method: Figure 6 Hc-CATH downregulates AXL via inhibiting COX-2/PGE2/AC/PKA pathway.A, effect of Hc-CATH on COX-2 protein level. A549 cells were incubated with Hc-CATH (1.25, 2.5, or 5 μM) or PBS (solvent of Hc-CATH) at 37 °C for 24 h, COX-2 protein level was examined by Western blot (upper panel) and analyzed by ImageJ (lower panel). B, effect of Hc-CATH on the enzymatic activity of COX-2. Hc-CATH (1.25, 2.5, 5, and 10 μM) or PBS was incubated with COX-2. After incubation at 37 °C for 10 min, the enzymatic activity of COX-2 was detected by enzyme activity inhibitor screening kit. Celecoxib (COX-2 inhibitor, 100 nM) was used as positive control. C, effect of Hc-CATH on PGE2 production. A549 cells were incubated with Hc-CATH (5 μM) at 37 °C. After incubation for 24 h, the level of PGE2 in the cell supernatant was detected by ELISA. D and E, effect of AC (D) and PKA (E) on Hc-CATH-induced AXL downregulation. A549 cells were incubated with forskolin (FSK, agonist of AC, 10 μM) or H89 (inhibitor of PKA, 5 μM) at 37 °C. After incubation for 1 h, the culture media were removed, cells were washed three times with PBS, and fresh culture media were added to cells in the presence of Hc-CATH (5 μM). After incubation for 24 h, AXL protein level was examined by Western blot (upper panel of D and E) and analyzed by ImageJ (lower panel of D and E). ns, not significant, ∗∗p < 0.01, and ∗∗∗p < 0.001. […]

In the case of `C=C[C@@]1(C)CC(=O)[C@]2(O)[C@@]3(C)[C@@H](O)CCC(C)(C)[C@@H]3[C@H](O)[C@H](OC(C)=O)[C@@]2(C)O1` [FSK, forskolin], the “effect on Hc-CATH-induced AXL downregulation” value (FSK 10 μM) was “effectively counteracted the Hc-CATH-induced AXL downregulation”.

With `O=S(=O)(NCCNC/C=C/c1ccc(Br)cc1)c1cccc2cnccc12` [H89], the “effect on Hc-CATH-mediated AXL downregulation” value (H89 5 μM) is “significantly facilitated Hc-CATH-mediated AXL downregulation”.
